ChEMBL document CHEMBL3352214, “Studies on indolizines. Evaluation of their biological properties as microtubule-interacting agents and as melanoma targeting compounds” (Eur J Med Chem, 2015)

Experiments:
Ovis aries = species: Ovis aries; assay: Inhibition of sheep brain tubulin polymerization at 100 uM by fluorescence assay
[1] = Growth inhibition of human MOLT4 cells at 10^-5 M after 48 hrs by SRB assay; assay type: functional; conditions: MOLT-4, 48 h, read-out: GI
HL-60(TB) = assay: Growth inhibition of human HL-60(TB) cells at 10^-5 M after 48 hrs by SRB assay; assay type: functional; conditions: HL-60, 48 h, read-out: GI
NCI-H522 = assay: Growth inhibition of human NCI-H522 cells at 10^-5 M after 48 hrs by SRB assay; assay type: functional; conditions: NCI-H522, 48 h, read-out: GI
[2] = Growth inhibition of human HCT116 cells at 10^-5 M after 48 hrs by SRB assay; assay type: functional; conditions: HCT-116, 48 h, read-out: GI
[3] = Growth inhibition of human HCT15 cells at 10^-5 M after 48 hrs by SRB assay; assay type: functional; conditions: HCT-15, 48 h, read-out: GI
MDA-MB-435 = assay: Growth inhibition of human MDA-MB-435 cells at 10^-5 M after 48 hrs by SRB assay; assay type: functional; conditions: MDA-MB-435, 48 h, read-out: GI
Malme-3M = assay: Growth inhibition of human MALME-3M cells at 10^-5 M after 48 hrs by SRB assay; assay type: functional; conditions: read-out: GI
A498 = assay: Growth inhibition of human A498 cells at 10^-5 M after 48 hrs by SRB assay; assay type: functional; conditions: A498, 48 h, read-out: GI
CAKI-1 = assay: Growth inhibition of human Caki1 cells at 10^-5 M after 48 hrs by SRB assay; assay type: functional; conditions: CAKI-1, 48 h, read-out: GI
[4] = Growth inhibition of human PC3 cells at 10^-5 M after 48 hrs by SRB assay; assay type: functional; conditions: PC-3, 48 h, read-out: GI
[5] = Growth inhibition of human SF295 cells at 10^-5 M after 48 hrs by SRB assay; assay type: functional; conditions: SF-295, 48 h, read-out: GI
SNB-75 = assay: Growth inhibition of human SNB75 cells at 10^-5 M after 48 hrs by SRB assay; assay type: functional; conditions: SNB-75, 48 h, read-out: GI
MCF7 = assay: Growth inhibition of human MCF7 cells at 10^-5 M after 48 hrs by SRB assay; assay type: functional; conditions: MCF7, 48 h, read-out: GI
T47D = assay: Growth inhibition of human T47D cells at 10^-5 M after 48 hrs by SRB assay; assay type: functional; conditions: Homo sapiens, T47D, 48 h; read-out: GI
[6] = Growth inhibition of human EKVX cells at 10^-5 M after 48 hrs by SRB assay; assay type: functional; conditions: read-out: GI
[7] = Growth inhibition of human HOP92 cells at 10^-5 M after 48 hrs by SRB assay; assay type: functional; conditions: HOP-92, 48 h, read-out: GI

SMILES	inhibition (Ovis aries) [%]	inhibition of growth at 10 µM [1] [%]	inhibition of growth at 10 µM (HL-60(TB)) [%]	inhibition of growth at 10 µM (NCI-H522) [%]	inhibition of growth at 10 µM [2] [%]	inhibition of growth at 10 µM [3] [%]	inhibition of growth at 10 µM (MDA-MB-435) [%]	inhibition of growth at 10 µM (Malme-3M) [%]	inhibition of growth at 10 µM (A498) [%]	inhibition of growth at 10 µM (CAKI-1) [%]	inhibition of growth at 10 µM [4] [%]	inhibition of growth at 10 µM [5] [%]	inhibition of growth at 10 µM (SNB-75) [%]	inhibition of growth at 10 µM (MCF7) [%]	inhibition of growth at 10 µM (T47D) [%]	inhibition of growth at 10 µM [6] [%]	inhibition of growth at 10 µM [7] [%]
COc1cc(C(=O)c2cc(C(=O)O)c3cccc(C)n23)cc(OC)c1OC	28	7	3	15	0	7	0	0	2	0	5	0	9	12	0		
COC(=O)c1c(C(=O)OC)c2c(C)cc(C)cn2c1C(=O)c1cc(OC)c(OC)c(OC)c1	36																
CCOC(=O)c1c(C(=O)OCC)c2cc(C)ccn2c1C(=O)c1cc(OC)c(OC)c(OC)c1	39																
CCOC(=O)c1cc(C(=O)c2cc(OC)c(OC)c(OC)c2)n2ccc(N(C)C)cc12	36	7	8	0	0	0	5	0	11	10	12	0	0	7	5	9	
CCOC(=O)c1cc(C(=O)c2cc(OC)c(OC)c(OC)c2)n2ccc(C#N)cc12	13																
COc1cc(C(=O)c2cc(C#N)c3cc(C#N)ccn23)cc(OC)c1OC	46	2	20	12	2	21	81	26	10	3	8	4	7	15	6		0
COC(=O)c1c(C(=O)OC)c2cc(OC)ccn2c1C(=O)c1ccc(OC)cc1	34	0	6		0	0	2	0	7	18	19	10	0	0	2	13	0
COC(=O)c1c(C(=O)OC)c2cc(N(C)C)ccn2c1C(=O)c1cc(OC)c(OC)c(OC)c1	15	0	26	3	0	7	4	0	18	19	2	11	9	0	5	0	11
COc1cc(C(=O)c2cc(C#N)c3c(C#N)cccn23)cc(OC)c1OC	39	0	7	0	11	23	54	28	0	6	12		69	29	10		8
COC(=O)c1c(C(=O)OC)c2cccc(C)n2c1C(=O)c1cc(OC)c(OC)c(OC)c1	32																
CCOC(=O)c1cc(C(=O)c2cc(OC)c(OC)c(OC)c2)n2cc(C)cc(C)c12	3	0	0	8	45	0	4	25		13	2	3	11	4	18	6	29
COC(=O)c1c(C(=O)OC)c2cc(N(C)C)ccn2c1C(=O)c1ccc(OC)c(OC)c1	9	0	12	3	0	6	0	0	27	10	11	1	1	0	0	0	18
COC(=O)c1c2c(O)nnc(-c3ccc(OC)cc3)c2n2cc(C)cc(C)c12	58	15	7	22	2	0	0	0	45	15	24	2	19	6			21
CCOC(=O)c1c2c(O)nnc(-c3cc(OC)c(OC)c(OC)c3)c2n2cc(C)cc(C)c12	43	0	0	1	6	0	0	0	15	0	0	0	5	0	0		0
CCOC(=O)c1cc(C(=O)c2ccc(OC)cc2)n2cc(C)cc(C)c12	32		83	43	23	14	11	28	30	24	20	35	46	17	13	29	11
COC(=O)c1c(C(=O)OC)c2cc(OC)ccn2c1C(=O)c1cc(OC)c(OC)c(OC)c1	16	0	1	4	2	13	4	0	0	2		11	0	0	6	7	
CCOC(=O)c1c(C(=O)OCC)c2cc(N(C)C)ccn2c1C(=O)c1cc(OC)c(OC)c(OC)c1	26																
CCOC(=O)c1cc(C(=O)c2cc(OC)c(OC)c(OC)c2)n2ccc3ccccc3c12	41																
